Values of other authors, collected in Sander's compilation of Henry's law constants.
Values joined by “and” are separate entries in the source; they are usually repeats but may differ in a detail not shown here. Identical values can stand only once.

Legend:
[1] = Henry solubility constant Hcp at 293 K (mol/(m3 Pa)); conditions: cited value
[2] = Henry solubility constant Hcp at 298.15 K (mol/(m3 Pa)); conditions: cited value
[3] = Henry solubility constant Hcp at 310 K (mol/(m3 Pa)); conditions: reference: Nahon et al. (2000); cited value
[4] = Henry solubility constant Hcp at 295 K (mol/(m3 Pa)); conditions: reference: Schwartz (1986); cited value
[5] = reference: Burkholder et al. (2015)
[6] = reference: Burkholder et al. (2019)
[7] = reference: Sander et al. (2006)
[8] = reference: Sander et al. (2011)
[9] = reference: Barcelo and Hennion (1997)

C#C [ethyne]
Henry solubility constant Hcp at 293 K ([1]; reference: Vtovec (1968)): 0.00044
Henry solubility constant Hcp [2, 5]: 0.00041
Henry solubility constant Hcp [2, 6]: 0.00041
Henry solubility constant Hcp ([2]; reference: Deno and Berkheimer (1960)): 0.00041
Henry solubility constant Hcp ([2]; reference: Fogg et al. (2002)): 0.00041
Henry solubility constant Hcp [2, 7]: 0.00041
Henry solubility constant Hcp [2, 8]: 0.00041
Henry solubility constant Hcp ([2]; reference: Schoen (1923)): 0.00041

CC(Cc1ccc(C(C)(C)C)cc1)CN1CCCCC1 (stereo not drawn) [fenpropidin]
Henry solubility constant Hcp at 293 K ([1]; reference: Tomlin (1998)): 0.099

[Hg] [mercury]
Henry solubility constant Hcp at 293 K ([1]; reference: WHO (1990)): 0.0014
Henry solubility constant Hcp [2, 5]: 0.0013
Henry solubility constant Hcp [2, 6]: 0.0013
Henry solubility constant Hcp ([2]; reference: Clever (1987)): 0.0012
Henry solubility constant Hcp ([2]; reference: Clever et al. (1985)): 0.0011
Henry solubility constant Hcp ([2]; reference: Shon et al. (2005)): 0.0012

CCCC(=O)OC [methyl butanoate]
Henry solubility constant Hcp at 310 K [3]: 0.036
Henry solubility constant Hcp ([2]; reference: Brockbank (2013)): 0.039

CCCCCCCC=O [octanal]
Henry solubility constant Hcp at 310 K [3]: 0.019
Henry solubility constant Hcp ([2]; reference: Brockbank (2013)): 0.02

O=O [oxygen]
Henry solubility constant Hcp at 293 K ([1]; reference: Nunn (1958)): 1.4e-05
Henry solubility constant Hcp ([2]; reference: Battino (1981)): 1.3e-05
Henry solubility constant Hcp ([2]; reference: Battino et al. (1983)): 1.3e-05
Henry solubility constant Hcp [2, 5]: 1.3e-05
Henry solubility constant Hcp [2, 6]: 1.3e-05
Henry solubility constant Hcp ([2]; reference: Himmelblau (1960)): 1.2e-05
Henry solubility constant Hcp [2, 7]: 1.3e-05
Henry solubility constant Hcp [2, 8]: 1.3e-05

CC(=O)OO[N+](=O)[O-] [peroxyacetyl nitrate]
Henry solubility constant Hcp [2, 5]: 0.028
Henry solubility constant Hcp [2, 6]: 0.028
Henry solubility constant Hcp ([2]; reference: Gaffney and Senum (1984)): 0.036
Henry solubility constant Hcp ([2]; reference: Leu and Zhang (1999)): 0.029
Henry solubility constant Hcp ([2]; reference: Pandis and Seinfeld (1989)): 0.029
Henry solubility constant Hcp [2, 7]: 0.028
Henry solubility constant Hcp [2, 8]: 0.028
Henry solubility constant Hcp at 295 K [4]: 0.036

Cc1cc(C)nc(Nc2ccccc2)n1 [pyrimethanil]
Henry solubility constant Hcp at 293 K ([1]; reference: Tomlin (1998)): 280

BrC(Br)Br [tribromomethane]
Henry solubility constant Hcp ([2]; reference: Brockbank (2013)): 0.018
Henry solubility constant Hcp [2, 5]: 0.017
Henry solubility constant Hcp [2, 6]: 0.017
Henry solubility constant Hcp ([2]; reference: Goldstein (1982)): 0.018
Henry solubility constant Hcp ([2]; reference: Nicholson et al. (1984)): 0.017
Henry solubility constant Hcp [2, 7]: 0.017
Henry solubility constant Hcp [2, 8]: 0.017

O=C(O)C(Cl)(Cl)Cl [trichloroethanoic acid]
Henry solubility constant Hcp [2, 5]: 730
Henry solubility constant Hcp [2, 6]: 730
Henry solubility constant Hcp [2, 8]: 730

ClC=C(Cl)Cl [trichloroethene]
Henry solubility constant Hcp ([2]; reference: Brockbank (2013)): 0.001
Henry solubility constant Hcp [2, 5]: 0.0011
Henry solubility constant Hcp [2, 6]: 0.0011
Henry solubility constant Hcp ([2]; reference: Fogg and Sangster (2003)): 0.001
Henry solubility constant Hcp ([2]; reference: Goldstein (1982)): 0.00088

CO/N=C(/C(=O)OC)c1ccccc1CO/N=C(\C)c1cccc(C(F)(F)F)c1 [trifloxystrobin]
Henry solubility constant Hcp ([2]; reference: MacBean (2012b)): 430

CCOC(=O)C(F)(F)F [trifluoroethanoic acid, ethyl ester]
Henry solubility constant Hcp [2, 5]: 0.00089
Henry solubility constant Hcp [2, 6]: 0.00089
Henry solubility constant Hcp [2, 8]: 0.00089

COC(=O)C(F)(F)F [trifluoroethanoic acid, methyl ester]
Henry solubility constant Hcp [2, 5]: 0.0011
Henry solubility constant Hcp [2, 6]: 0.0011
Henry solubility constant Hcp [2, 8]: 0.0011

FC(F)F [trifluoromethane]
Henry solubility constant Hcp [2, 5]: 0.00013
Henry solubility constant Hcp [2, 6]: 0.00013
Henry solubility constant Hcp [2, 8]: 0.00013

CCCN(CCC)c1c([N+](=O)[O-])cc(C(F)(F)F)cc1[N+](=O)[O-] [trifluralin]
Henry solubility constant Hcp [2, 9]: 0.0025
Henry solubility constant Hcp ([2]; reference: HSDB (2015)): 0.096

CN(C)C [trimethylamine]
Henry solubility constant Hcp [2, 5]: 0.099
Henry solubility constant Hcp [2, 6]: 0.099

COc1cc(C=O)ccc1O [vanillin]
Henry solubility constant Hcp ([2]; reference: Brockbank (2013)): 1700

C=CC1(C)OC(=O)N(c2cc(Cl)cc(Cl)c2)C1=O (stereo not drawn) [vinclozoline]
Henry solubility constant Hcp [2, 9]: 7.6

[Xe] [xenon]
Henry solubility constant Hcp ([2]; reference: Clever (1979b)): 4.3e-05

S=C([S-])NCCNC(=S)[S-].[Zn+2] [zineb]
Henry solubility constant Hcp ([2]; reference: MacBean (2012b)): > 3700

ClC1C(Cl)C(Cl)C(Cl)C(Cl)C1Cl (stereo not drawn) [α-1,2,3,4,5,6-hexachlorocyclohexane]
Henry solubility constant Hcp ([2]; reference: Xiao et al. (2004)): 1.5 and 1.4

ClC1C(Cl)C(Cl)C(Cl)C(Cl)C1Cl (stereo not drawn) [β-1,2,3,4,5,6-hexachlorocyclohexane]
Henry solubility constant Hcp ([2]; reference: Xiao et al. (2004)): 27

ClC1C(Cl)C(Cl)C(Cl)C(Cl)C1Cl (stereo not drawn) [γ-1,2,3,4,5,6-hexachlorocyclohexane]
Henry solubility constant Hcp ([2]; reference: McCarty (1980)): 31
Henry solubility constant Hcp ([2]; reference: Xiao et al. (2004)): 3.7 and 3.3
